Experimental findings from ChEMBL document CHEMBL5154883, “Conformational Constrained 4-(1-Sulfonyl-3-indol)yl-2-phenylaminopyrimidine Derivatives as New Fourth-Generation Epidermal Growth Factor Receptor Inhibitors Targeting T790M/C797S Mutations” (J Med Chem, 2022) are described below.

Each structure is given as a SMILES string.

For data set [1], the target named is Epidermal growth factor receptor (Homo sapiens, UniProt P00533). In words: Inhibition of wild type EGFR (unknown origin) by ELISA. For orientation: In an ELISA, binding on a coated surface is turned into a signal by an enzyme label.
In data set [2] the target is Epidermal growth factor receptor (Homo sapiens, UniProt P00533, C797S/EX19DEL/T790M). In words: Inhibition of EGFR 19 del/T790M/C797S mutant (unknown origin) by ELISA.
The target of data set [3] is Epidermal growth factor receptor (Homo sapiens, UniProt P00533, C797S/L858R/T790M). In words: Inhibition of EGFR L858R/T790M/C797S mutant (unknown origin) by ELISA.
The target in data set [4] is Epidermal growth factor receptor (Homo sapiens, UniProt P00533, L858R/T790M). In words: Inhibition of EGFR L858R/T790M mutant (unknown origin) by ELISA.
A short description of data set [5]: Cytotoxicity against mouse IL-3 dependent BaF3 cells assessed as inhibition of cell growth incubated for 72 hrs by CCK-8 assay. The class given is toxicity, cell-based. Particulars: BaF3 cells (IL-3 dependent). Background: Tetrazolium assays rely on reduction of a dye to a coloured formazan, in cell work by metabolically active cells.
Data set [6] deals with BaF3. In words: Antiproliferative activity against mouse BaF3 cells stably expressing EGFR L858R/T790M/C797S mutant assessed as inhibition of cell growth incubated for 72 hrs by CCK-8 assay. The class given is functional, cell-based. Particulars: BaF3, 72 h.
Data set [7] concerns BaF3. The data set is described as follows: Antiproliferative activity against mouse BaF3 cells harboring EGFR 19 del/T790M/C797S mutant assessed as reduction in cell viability incubated for 72 hrs by CCK8 assay. Particulars: BaF3, 72 h. The class given is functional, cell-based.
For the next data set, the system named is A-431. The data set is described as follows: Antiproliferative activity against human A-431 cells harboring wild type EGFR assessed as reduction in cell viability incubated for 72 hrs by CCK-8 assay. Particulars: A-431, 72 h. It is filed as functional, cell-based.
A further data set concerns PC-9. In words: Antiproliferative activity against human osimertinib-resistant PC-9 cells harboring EGFR 19 del/T790M/C797S mutant assessed as reduction in cell viability incubated for 72 hrs by CCK-8 assay. Particulars: PC-9, 72 h. The class given is functional, cell-based.

Epidermal growth factor receptor (Homo sapiens, UniProt P00533), sequence (P00533 whole entry): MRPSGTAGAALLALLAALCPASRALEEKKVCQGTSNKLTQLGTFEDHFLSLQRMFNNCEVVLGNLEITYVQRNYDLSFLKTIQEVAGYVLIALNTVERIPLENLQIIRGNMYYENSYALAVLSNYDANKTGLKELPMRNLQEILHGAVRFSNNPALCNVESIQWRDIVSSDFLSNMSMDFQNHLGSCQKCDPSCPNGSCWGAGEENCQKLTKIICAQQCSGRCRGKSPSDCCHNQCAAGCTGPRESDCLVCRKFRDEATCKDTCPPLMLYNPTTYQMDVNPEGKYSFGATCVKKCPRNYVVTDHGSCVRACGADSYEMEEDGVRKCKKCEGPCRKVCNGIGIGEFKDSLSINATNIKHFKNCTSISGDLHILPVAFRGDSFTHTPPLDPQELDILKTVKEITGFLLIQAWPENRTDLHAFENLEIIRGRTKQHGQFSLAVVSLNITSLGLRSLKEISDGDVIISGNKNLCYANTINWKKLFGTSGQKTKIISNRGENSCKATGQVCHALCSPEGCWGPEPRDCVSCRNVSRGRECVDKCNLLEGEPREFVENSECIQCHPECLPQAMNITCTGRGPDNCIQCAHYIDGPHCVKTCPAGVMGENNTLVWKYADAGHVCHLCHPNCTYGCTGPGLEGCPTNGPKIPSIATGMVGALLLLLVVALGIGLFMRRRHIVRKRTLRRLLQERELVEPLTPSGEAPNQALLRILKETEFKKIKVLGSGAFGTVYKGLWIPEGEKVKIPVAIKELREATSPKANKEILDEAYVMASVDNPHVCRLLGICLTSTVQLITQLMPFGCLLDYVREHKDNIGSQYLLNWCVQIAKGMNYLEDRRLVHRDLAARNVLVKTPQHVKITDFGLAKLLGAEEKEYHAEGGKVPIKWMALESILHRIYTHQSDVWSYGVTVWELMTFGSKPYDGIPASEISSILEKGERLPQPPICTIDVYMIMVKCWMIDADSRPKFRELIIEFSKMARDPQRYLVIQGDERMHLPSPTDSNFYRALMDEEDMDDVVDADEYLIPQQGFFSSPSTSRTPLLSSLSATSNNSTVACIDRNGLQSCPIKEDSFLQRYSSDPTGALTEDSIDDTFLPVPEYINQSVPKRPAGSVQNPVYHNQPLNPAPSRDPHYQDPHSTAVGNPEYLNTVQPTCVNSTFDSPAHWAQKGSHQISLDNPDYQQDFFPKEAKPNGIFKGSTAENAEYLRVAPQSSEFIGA
Epidermal growth factor receptor (Homo sapiens, UniProt P00533, C797S/EX19DEL/T790M), sequence (P00533 whole entry, looked up, stated change not applied): as the sequence (P00533 whole entry) above
Epidermal growth factor receptor (Homo sapiens, UniProt P00533, L858R/T790M), sequence (P00533 25-1210 T790M/L858R limits assumed): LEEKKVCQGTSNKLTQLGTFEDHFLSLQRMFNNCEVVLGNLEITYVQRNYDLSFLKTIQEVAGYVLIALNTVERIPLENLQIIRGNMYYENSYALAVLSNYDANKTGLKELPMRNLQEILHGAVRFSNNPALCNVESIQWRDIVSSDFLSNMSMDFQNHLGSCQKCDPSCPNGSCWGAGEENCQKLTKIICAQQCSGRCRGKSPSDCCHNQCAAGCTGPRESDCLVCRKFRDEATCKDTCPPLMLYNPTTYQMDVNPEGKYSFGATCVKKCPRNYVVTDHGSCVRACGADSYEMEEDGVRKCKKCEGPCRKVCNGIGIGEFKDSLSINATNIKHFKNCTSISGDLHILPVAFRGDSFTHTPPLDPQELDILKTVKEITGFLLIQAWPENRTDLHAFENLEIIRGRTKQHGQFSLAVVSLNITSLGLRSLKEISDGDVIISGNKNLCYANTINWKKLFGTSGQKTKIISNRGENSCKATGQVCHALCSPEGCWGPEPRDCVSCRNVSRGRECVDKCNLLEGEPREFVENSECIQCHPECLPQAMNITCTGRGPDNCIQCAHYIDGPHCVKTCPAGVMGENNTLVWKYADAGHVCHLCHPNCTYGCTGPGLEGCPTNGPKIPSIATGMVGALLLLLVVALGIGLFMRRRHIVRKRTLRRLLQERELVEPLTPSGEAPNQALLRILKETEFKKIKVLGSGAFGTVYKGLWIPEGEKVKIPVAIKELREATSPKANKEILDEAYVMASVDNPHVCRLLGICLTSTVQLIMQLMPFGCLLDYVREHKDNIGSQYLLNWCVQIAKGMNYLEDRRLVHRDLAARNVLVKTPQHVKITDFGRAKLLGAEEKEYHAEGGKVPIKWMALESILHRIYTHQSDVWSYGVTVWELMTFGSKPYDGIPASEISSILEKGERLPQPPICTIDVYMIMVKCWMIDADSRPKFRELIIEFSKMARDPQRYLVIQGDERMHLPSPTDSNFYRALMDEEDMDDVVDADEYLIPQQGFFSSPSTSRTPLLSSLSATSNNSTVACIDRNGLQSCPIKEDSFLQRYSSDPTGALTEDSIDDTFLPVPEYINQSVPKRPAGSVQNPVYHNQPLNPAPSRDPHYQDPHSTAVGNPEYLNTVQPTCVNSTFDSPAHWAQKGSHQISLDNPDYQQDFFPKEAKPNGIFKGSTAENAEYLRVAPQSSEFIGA
Epidermal growth factor receptor (Homo sapiens, UniProt P00533, C797S/L858R/T790M), sequence (P00533 25-1210 T790M/C797S/L858R limits assumed): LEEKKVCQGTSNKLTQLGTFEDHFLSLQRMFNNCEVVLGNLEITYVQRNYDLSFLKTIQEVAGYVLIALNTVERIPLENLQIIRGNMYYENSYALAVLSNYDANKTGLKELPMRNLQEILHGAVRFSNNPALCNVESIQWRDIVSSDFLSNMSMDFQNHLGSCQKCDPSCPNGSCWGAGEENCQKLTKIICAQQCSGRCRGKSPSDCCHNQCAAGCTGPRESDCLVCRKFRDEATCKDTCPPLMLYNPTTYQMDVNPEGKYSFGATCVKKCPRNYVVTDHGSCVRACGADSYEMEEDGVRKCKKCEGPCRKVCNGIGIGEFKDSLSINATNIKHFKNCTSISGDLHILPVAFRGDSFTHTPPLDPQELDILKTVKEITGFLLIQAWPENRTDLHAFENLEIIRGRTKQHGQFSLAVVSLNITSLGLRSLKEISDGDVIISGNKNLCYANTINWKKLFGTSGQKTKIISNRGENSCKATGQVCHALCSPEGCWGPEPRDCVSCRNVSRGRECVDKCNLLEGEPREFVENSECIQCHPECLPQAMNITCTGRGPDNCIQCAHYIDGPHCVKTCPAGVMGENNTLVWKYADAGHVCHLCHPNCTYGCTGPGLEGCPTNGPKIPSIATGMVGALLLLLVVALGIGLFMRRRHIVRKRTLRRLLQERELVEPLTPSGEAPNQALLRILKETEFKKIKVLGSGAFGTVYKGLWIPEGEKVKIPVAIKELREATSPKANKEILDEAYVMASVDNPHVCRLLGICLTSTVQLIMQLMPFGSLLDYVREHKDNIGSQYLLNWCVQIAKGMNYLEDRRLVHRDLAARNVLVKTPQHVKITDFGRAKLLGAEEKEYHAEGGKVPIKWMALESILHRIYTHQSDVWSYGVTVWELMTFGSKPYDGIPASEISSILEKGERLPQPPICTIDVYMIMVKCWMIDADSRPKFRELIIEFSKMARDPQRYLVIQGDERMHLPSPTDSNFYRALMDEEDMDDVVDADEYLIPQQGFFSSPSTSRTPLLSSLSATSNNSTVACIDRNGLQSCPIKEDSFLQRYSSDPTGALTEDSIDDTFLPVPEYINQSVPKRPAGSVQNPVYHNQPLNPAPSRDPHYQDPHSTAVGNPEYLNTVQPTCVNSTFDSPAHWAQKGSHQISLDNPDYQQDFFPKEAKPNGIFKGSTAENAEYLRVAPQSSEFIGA

With `CCS(=O)(=O)n1cc(-c2nc(Nc3cc(C)c(N4CCC(N5CCN(C)CC5)CC4)cc3OC)ncc2Cl)c2ccccc21`, the IC50 was 0.0559 µM in [1], 0.0692 µM in data set [2], 0.0015 µM in data set [3] and 0.0027 µM in data set [4].
Take `CCS(=O)(=O)n1cc2c3cc(ccc31)OCCCCCCOc1cc(ccc1N1CCOCC1)Nc1ncc(Cl)c-2n1`: the half-inhibitory concentration (IC50) in data set [1] and in data set [3] was more than 1 µM in each case.
For the compound `CCS(=O)(=O)n1cc(-c2nc(Nc3cc(Cl)c(N4CCC(N5CCN(C)CC5)CC4)cc3OC)ncc2Cl)c2ccccc21`, the IC50 worked out at 0.816 µM in data set [1]; 2.61 µM in the data set on BaF3 [6]; 0.0256 µM in data set [2]; 0.0043 µM in data set [3]; 0.0066 µM in data set [4]. In addition, the 50% inhibitory concentration (IC50) at 72 h in [5] was found to be 4.92 µM.
In the case of `CCc1cc(Nc2ncc(Cl)c(-c3cn(S(=O)(=O)CC)c4ccccc34)n2)c(OC)cc1N1CCC(N2CCN(C)CC2)CC1`, the IC50 in data set [1] worked out at 0.262 µM; in data set [2], 0.0548 µM; in [3], 0.0218 µM; in [4], 0.0063 µM.
As for `CCS(=O)(=O)n1cc2c3ccc(cc31)OCCCCCCCCOc1cc(ccc1N1CCOCC1)Nc1ncc(Cl)c-2n1`, the IC50 in data set [1] is more than 1 µM; in the data set on BaF3 [6], 0.45 µM; in [3], 0.142 µM. Besides, the IC50 at 72 h in data set [5] was 2.44 µM.
The like results for `CCc1cc(N2CCOCC2)c2cc1Nc1ncc(Cl)c(n1)-c1cn(S(=O)(=O)CC)c3cc(ccc13)OCCCCCCO2` were, in that order, more than 1 µM, 0.142 µM, 0.0321 µM and 4.64 µM.
As to `CCS(=O)(=O)n1cc2c3ccc(cc31)OCCCCCCOc1cc(ccc1N1CCOCC1)Nc1ncc(Cl)c-2n1`, the IC50 turned out to be 0.236 µM in [1], 0.016 µM with BaF3 [6] and 0.0062 µM in data set [3]. In addition, in data set [5], the half-inhibitory concentration (IC50) at 72 h was 0.293 µM.
Regarding `CCS(=O)(=O)n1cc(-c2nc(Nc3cc(C(C)C)c(N4CCC(N5CCN(C)CC5)CC4)cc3OC)ncc2Cl)c2ccccc21`, the IC50 in data set [1] was more than 1 µM; in data set [2], 0.116 µM; in [3] it was 0.478 µM; in data set [4] it was 0.0743 µM.
The like results for `COc1cc(N2CCC(N3CCN(C)CC3)CC2)ccc1Nc1ncc(Cl)c(-c2cn(S(=O)(=O)C(C)C)c3ccccc23)n1` were, in that order, more than 1 µM, 0.0242 µM, 0.145 µM and 0.018 µM.
In the case of `CCS(=O)(=O)n1cc2c3ccc(cc31)OCCCCCCOc1cc(c(Cl)cc1N1CCOCC1)Nc1ncc(Cl)c-2n1`, the IC50 in data set [1] was more than 1 µM; in the data set on BaF3 [6] it was 0.14 µM; in data set [3], 0.0578 µM. Besides, the IC50 at 72 h in data set [5] is more than 10 µM.
Regarding `CCS(=O)(=O)n1cc(-c2nc(Nc3cc(Cl)c(N4CCC(N5CCN(C)CC5)CC4)cc3OC(C)C)ncc2Cl)c2ccccc21`, the IC50 in data set [1] worked out at 0.413 µM; in the data set with BaF3 [6] it was 2.77 µM; in data set [2], 0.0081 µM; in [3], 0.0308 µM; in [4], 0.0021 µM. In addition, the IC50 at 72 h in data set [5] was more than 10 µM.
With `COc1cc(N2CCC(N3CCN(C)CC3)CC2)ccc1Nc1ncc(Cl)c(-c2cn(C(C)=O)c3ccccc23)n1`, the IC50 in [1] is more than 1 µM; in data set [2], 0.0085 µM; in data set [3], 0.0778 µM; in data set [4], 0.0129 µM.
Regarding `CCS(=O)(=O)n1cc2c3ccc(cc31)OCCCCCCOc1cc(c(C3CCCC3)cc1N1CCOCC1)Nc1ncc(Cl)c-2n1`, the IC50 in data set [1] is more than 1 µM; in data set [3] it was 0.165 µM.
For the compound `COc1cc(N2CCC(N3CCN(C)CC3)CC2)ccc1Nc1ncc(Cl)c(-c2cn(S(=O)(=O)C3CC3)c3ccccc23)n1`, the concentration for half-maximal inhibition (IC50) in data set [1] is more than 1 µM; in data set [2] it was 0.0333 µM; in data set [3], 0.222 µM; in [4] it was 0.0326 µM.
Turning to `CCS(=O)(=O)n1cc2c3ccc(cc31)OCCCCOc1cc(ccc1N1CCOCC1)Nc1ncc(Cl)c-2n1`, the IC50 in [1] and in [3] was more than 1 µM each time.
As to `CCS(=O)(=O)n1cc(-c2nc(Nc3ccc(N4CCC(N5CCN(C)CC5)CC4)c(Cl)c3)ncc2Cl)c2ccccc21`, the IC50 in [1] is 0.466 µM; in data set [2], 0.0049 µM; in data set [3], 0.0144 µM; in data set [4], 0.0022 µM.
Turning to `CCS(=O)(=O)n1cc(-c2nc(Nc3cc(Cl)c(N4CCC(N5CCN(C)CC5)CC4)cc3C)ncc2Cl)c2ccccc21`, the IC50 in [1] was 0.547 µM; in the data set on BaF3 [6], 0.41 µM; in data set [2] it was 0.0047 µM; in [3], 0.0016 µM; in data set [4], 0.0163 µM. In addition, the IC50 at 72 h in data set [5] was determined as 1.32 µM.
With `COc1cc(N2CCC(N3CCN(C)CC3)CC2)ccc1Nc1ncc(Cl)c(-c2cn(S(C)(=O)=O)c3ccccc23)n1`, the half-inhibitory concentration (IC50) is more than 1 µM in [1], 0.0019 µM in data set [2], 0.0419 µM in [3] and 0.0055 µM in [4].
On to `CCOc1cc(N2CCC(N3CCN(C)CC3)CC2)c(Cl)cc1Nc1ncc(Cl)c(-c2cn(S(=O)(=O)CC)c3ccccc23)n1`, for which the IC50 in [1] came to 0.344 µM; in the data set on BaF3 [6], 3.15 µM; in data set [2], 0.012 µM; in data set [3] it was 0.0042 µM; in [4] it was 0.0075 µM. Further, in [5], the concentration for half-maximal inhibition (IC50) at 72 h came out at 7.86 µM.
In the case of `COc1cc(N2CCC(N3CCN(C)CC3)CC2)ccc1Nc1ncc(Cl)c(-c2c[nH]c3ccccc23)n1`, the IC50 in [1] was more than 1 µM; in data set [2], 0.0226 µM; in data set [3] it was 0.124 µM; in data set [4], 0.0156 µM.
With `CCS(=O)(=O)n1cc2c3ccc(cc31)OCCCCCCCOc1cc(ccc1N1CCOCC1)Nc1ncc(Cl)c-2n1`, the concentration for half-maximal inhibition (IC50) in [1] is more than 1 µM; in the data set on BaF3 [6], 0.18 µM; in [3] it was 0.0899 µM. Moreover, the IC50 at 72 h in [5] was found to be 0.773 µM.
As to `CCS(=O)(=O)n1cc2c3cc(ccc31)OCCCCCOc1cc(ccc1N1CCOCC1)Nc1ncc(Cl)c-2n1`, the IC50 in data set [1] and in data set [3] was more than 1 µM each time.
As for `C=CC(=O)Nc1cc(Nc2nccc(-c3cn(C)c4ccccc34)n2)c(OC)cc1N(C)CCN(C)C` [OSIMERTINIB], the concentration for half-maximal inhibition (IC50) in the data set on BaF3 [7] came out at 6.07 µM; with A-431 it was […]; in the data set with BaF3 [6] it was 4.27 µM; with PC-9, 5.43 µM. Also, the IC50 at 72 h in data set [5] worked out at 3.52 µM.
In the case of `CCS(=O)(=O)n1cc2c3ccc(cc31)OCCCCCOc1cc(ccc1N1CCOCC1)Nc1ncc(Cl)c-2n1`, the half-inhibitory concentration (IC50) is more than 1 µM in data set [1], 0.168 µM in the data set with BaF3 [6] and 0.019 µM in data set [3]. The half-inhibitory concentration (IC50) at 72 h in data set [5] worked out at 0.349 µM.
`CCS(=O)(=O)n1cc2c3ccc(cc31)OCCCCCCOc1cc(c(F)cc1N1CCOCC1)Nc1ncc(Cl)c-2n1`: the IC50 in [1] was 0.885 µM; in the data set on BaF3 [6] it was 0.066 µM; in [3], 0.028 µM. Besides, the IC50 at 72 h in data set [5] came out at 2.56 µM.
Turning to `CCS(=O)(=O)n1cc(-c2nc(Nc3ccc(N4CCC(N5CCN(C)CC5)CC4)cc3OC)ncc2Cl)c2ccccc21`, the IC50 in data set [1] was more than 1 µM; in [2], 0.0056 µM; in data set [3], 0.0348 µM; in [4] it was 0.0056 µM.
As for `CCS(=O)(=O)n1cc(-c2nc(Nc3ccc(N4CCC(N5CCN(C)CC5)CC4)c(Cl)c3OC)ncc2Cl)c2ccccc21`, the IC50 in data set [1], in data set [2], in data set [3] and in data set [4] was more than 1 µM each time.
For `COc1cc(N2CCC(N3CCN(C)CC3)CC2)ccc1Nc1ncc(Cl)c(Nc2ccccc2P(C)(C)=O)n1` [BRIGATINIB], the IC50 with BaF3 [7] was determined as 0.492 µM; with A-431, 1.36 µM; in the data set with BaF3 [6], 0.61 µM; with PC-9 it was 1.45 µM. In addition, the IC50 at 72 h in data set [5] was 1.91 µM.
Consider `CCS(=O)(=O)n1cc2c3ccc(cc31)OCCCCCCOc1cc(c(C3CC3)cc1N1CCOCC1)Nc1ncc(Cl)c-2n1`, for which the half-maximal inhibitory concentration (IC50) is more than 1 µM in [1], 0.263 µM in the data set with BaF3 [6] and 0.0564 µM in data set [3]. The half-inhibitory concentration (IC50) at 72 h in data set [5] was more than 10 µM.

By IC50 is commonly meant the concentration that inhibits the measured activity by half.
